Tests used:
Format in all cases: biochemical
[1] = target: Bacillus circulans cyclodextrin glycosyltransferase (CGTase) variant M234L, Met234Leu of parent SEQ ID NO.2 [来源于环状芽孢杆菌(B.circulans)的环糊精葡萄糖基转移酶, M234L] (Niallia circulans, UniProt P43379, M261L); experiment: Acceptor affinity for maltose (Km) in the disproportionation reaction, M234L; conditions: M234L vs wild type, EPS as donor, pH 5.5, 50℃, affinity expressed by Km
[2] = target: Bacillus circulans cyclodextrin glycosyltransferase (CGTase) variant M234A, Met234Ala of parent SEQ ID NO.2 [来源于环状芽孢杆菌(B.circulans)的环糊精葡萄糖基转移酶, M234A] (Niallia circulans, UniProt P43379, M261A); experiment: Acceptor affinity for maltose (Km) in the disproportionation reaction, M234A; conditions: M234A vs wild type, EPS as donor, pH 5.5, 50℃, affinity expressed by Km
[3] = target: T1, Bacillus circulans cyclodextrin glycosyltransferase (CGTase) variant M234I, Met234Ile of parent SEQ ID NO.2 [来源于环状芽孢杆菌(B.circulans)的环糊精葡萄糖基转移酶, M234I] (Niallia circulans, UniProt P43379, M261I); experiment: Acceptor affinity for maltose (Km) in the disproportionation reaction, M234I; conditions: M234I vs wild type, EPS as donor, pH 5.5, 50℃, affinity expressed by Km
T1 construct: made in house; host or cells: E. coli BL21(DE3), pET-20b(+), fermentation supernatant (crude enzyme)

[4] = target: T2, Bacillus circulans cyclodextrin glycosyltransferase (CGTase) variant M234V, Met234Val of parent SEQ ID NO.2 [来源于环状芽孢杆菌(B.circulans)的环糊精葡萄糖基转移酶, M234V] (Niallia circulans, UniProt P43379, M261V); experiment: Acceptor affinity for maltose (Km) in the disproportionation reaction, M234V; conditions: M234V vs wild type, EPS as donor, pH 5.5, 50℃, affinity expressed by Km
T2 construct: made in house; host or cells: E. coli BL21(DE3), pET-20b(+), fermentation supernatant (crude enzyme)
T2 sequence (P43379 28-713 M261V): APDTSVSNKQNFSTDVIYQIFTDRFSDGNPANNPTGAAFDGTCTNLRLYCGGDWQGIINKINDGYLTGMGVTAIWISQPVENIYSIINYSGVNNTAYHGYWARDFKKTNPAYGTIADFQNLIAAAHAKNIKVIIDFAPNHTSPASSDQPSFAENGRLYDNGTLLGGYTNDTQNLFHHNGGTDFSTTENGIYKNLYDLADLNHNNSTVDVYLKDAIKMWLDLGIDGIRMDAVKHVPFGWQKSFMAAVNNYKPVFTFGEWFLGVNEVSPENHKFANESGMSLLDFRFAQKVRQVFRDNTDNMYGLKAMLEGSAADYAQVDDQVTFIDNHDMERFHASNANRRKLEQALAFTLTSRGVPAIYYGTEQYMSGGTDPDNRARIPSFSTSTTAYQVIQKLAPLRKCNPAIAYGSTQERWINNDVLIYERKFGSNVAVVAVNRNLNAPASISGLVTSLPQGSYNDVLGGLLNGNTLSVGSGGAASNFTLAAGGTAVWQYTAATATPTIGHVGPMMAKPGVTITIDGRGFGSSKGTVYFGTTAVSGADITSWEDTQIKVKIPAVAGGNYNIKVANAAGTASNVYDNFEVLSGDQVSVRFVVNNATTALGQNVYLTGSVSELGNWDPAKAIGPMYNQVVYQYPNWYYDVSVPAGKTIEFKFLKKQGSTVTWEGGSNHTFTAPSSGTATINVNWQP

T1 sequence (P43379 28-713 M261I): as the sequence (P43379 28-713 M261V) above, with V234I counted along it
Sequence of Bacillus circulans cyclodextrin glycosyltransferase (CGTase) variant M234A, Met234Ala of parent SEQ ID NO.2 [来源于环状芽孢杆菌(B.circulans)的环糊精葡萄糖基转移酶, M234A] (P43379 whole entry M261A): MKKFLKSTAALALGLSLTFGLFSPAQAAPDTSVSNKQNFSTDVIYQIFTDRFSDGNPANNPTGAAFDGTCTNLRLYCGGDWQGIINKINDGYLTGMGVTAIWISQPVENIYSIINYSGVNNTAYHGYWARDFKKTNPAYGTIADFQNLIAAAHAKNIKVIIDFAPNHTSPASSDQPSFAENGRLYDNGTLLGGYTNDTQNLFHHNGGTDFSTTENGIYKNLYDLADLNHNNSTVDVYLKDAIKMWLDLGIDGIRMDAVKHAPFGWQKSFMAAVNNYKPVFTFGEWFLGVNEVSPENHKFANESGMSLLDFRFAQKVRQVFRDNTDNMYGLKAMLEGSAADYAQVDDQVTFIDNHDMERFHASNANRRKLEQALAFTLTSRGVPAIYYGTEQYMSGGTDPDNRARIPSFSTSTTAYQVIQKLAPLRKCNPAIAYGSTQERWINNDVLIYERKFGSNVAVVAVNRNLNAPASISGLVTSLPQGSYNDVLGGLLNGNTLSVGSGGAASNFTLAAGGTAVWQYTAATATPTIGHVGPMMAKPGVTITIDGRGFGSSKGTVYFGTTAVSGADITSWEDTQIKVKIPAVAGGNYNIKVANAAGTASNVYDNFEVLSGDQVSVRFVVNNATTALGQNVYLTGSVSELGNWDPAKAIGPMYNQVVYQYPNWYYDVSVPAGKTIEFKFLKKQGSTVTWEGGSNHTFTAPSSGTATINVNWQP
Sequence of Bacillus circulans cyclodextrin glycosyltransferase (CGTase) variant M234L, Met234Leu of parent SEQ ID NO.2 [来源于环状芽孢杆菌(B.circulans)的环糊精葡萄糖基转移酶, M234L] (P43379 whole entry M261L): as the sequence (P43379 whole entry M261A) above, with A261L counted along it

With `OCC1OC(OC2C(CO)OC(O)C(O)C2O)C(O)C(O)C1O` (stereo not shown) [麦芽糖] the “increase in acceptor affinity for maltose compared with wild type” value (shortened to “increase in acceptor affinity”) [1] was 30.3%, the “increase in acceptor affinity” value [2] was 34.7% and the “increase in acceptor affinity” value [3] was 45.6%. The “increase in acceptor affinity” value [4] was 36.9%.

From CN109456950A, “一种环糊精葡萄糖基转移酶的突变体及其应用” (priority 2018, dated 2019)
